Source: US20240099295A1, “CELL TREATMENT AGENT” (AYA Inc., priority 2021, published 2024)

Assays:
Type in all cases: cell-based
[1] = tested on: Rat corneal epithelial cell; assay: Cell protective effect: cell survival during preservation (trypan blue excretion test); conditions: for Average survival rate at 24 hours / Average survival rate after preservation for 24 hours: normal temperature (22° C.); for Average survival rate at 72 hours / Average survival rate after preservation for 7 days: refrigerator 4° C.
Experimental: (§1) Using a normal serum-free cell culture solution without FBS or a Ringer's solution (Otsuka Pharmaceutical Co., Ltd., Lactec Injection, Japanese Pharmacopoeia, Sodium L-lactate Ringer's solution) as a conditioning solution for use, for example, in preservation and transportation of cells, sodium alginate (Na alginate) (Fuji Chemical Industry Co., Ltd. Snow Algin SSL, viscosity of 1% aqueous solution is 30 mPa·s at 20° C.) was added to the conditioning solution in the concentrations shown in Table 1 to prepare cell preservation solutions. To each cell preservation solution, the above-described cells were added at a concentration of 10^6 cells/ml to satisfy the conditions shown in Table 1, and the resultant solution was left to stand in a room at normal temperature (22° C.) for 24 hours, and then whether cells were alive or dead was determined, and rates of viable cells (average survival rate (%)) were calculated and compared. Cell viability was determined by the trypan blue excretion test that is the ordinary method of confirming cell viability. The excretion test was performed according to the method described in “Denizot F., et al., Rapid colorimetric assay for cell growth and survival. Modifications to the tetrazolium dye procedure giving improved sensitivity and reliability. J. Immunol. Methods, 89, 271-277 (1986)”. The results are of N=4.
(§2) The average survival rate (%) was determined in the same manner as in Experimental Example (1-1-1) except that the preservation conditions were changed to leaving still for 72 hours in a refrigerator at a set temperature of 4° C. The results are of N=4.
The average survival rate (%) of cells was determined in the same manner as in Experimental Example (1-1-1) except that dextran sulfate (dextran sulfate special grade reagent available from NACALAI TESQUE, INC.) was used instead of sodium alginate and the conditions were as shown in Table 3. The results are of N=4.
The average survival rate (%) of cells was determined in the same manner as in Experimental Example (1-2-1) except that the preservation conditions were changed to leaving still for 72 hours in a refrigerator at a set temperature of 4° C. and to conditions shown in Table 4. The results are of N=3 in the case of using a serum-free cell culture solution, and are of N=4 in the case of using a Ringer's solution.
The average survival rate (%) of cells was determined in the same manner as in Experimental Example (1-1-1) except that heparin sodium (Heparin Na Mochida, unfractionated heparin, available from Mochida Pharmaceutical Co., Ltd.) was used instead of alginic acid and the conditions were as shown in Table 5. The results are of N=4.
The average survival rate (%) of cells was determined in the same manner as in Experimental Example (1-3-1) except that the preservation conditions were changed to leaving still for 72 hours in a refrigerator at a set temperature of 4° C. and to conditions shown in Table 6. The results are of N=4.
The average survival rate (%) of cells was determined in the same manner as in Experimental Example (1-3-2) except that urinastatin (Miraclid injection solution, containing 2.5 million units, available from Mochida Pharmaceutical Co., Ltd.) was used as a proteolytic enzyme inhibitor instead of heparin sodium and the conditions were as shown in Table 7. The results are of N=4. “Unit (U)” in the unit of concentration (units/mL) of inhibitor a in Table 7 can be measured, for example, by the quantitative method of urinastatin in the Japanese Pharmacopoeia 15th revision. Specifically, absorbance at 405 nm of a sample solution is measured with a UV 240 spectrophotometer, and concentration of urinastatin can be calculated from a calibration curve prepared in advance. […]

[2] = tested on: Chinese hamster fibroblast; assay: as above; conditions: for Average survival rate at 24 hours / Average survival rate at 72 hours: Ringer's solution; for Average survival rate at 24 hours: normal temperature (22° C.); for Average survival rate at 72 hours: refrigerator 4° C.
Experimental: as §1, §2

[3] = tested on: Rat corneal epithelial cell; assay: Cell dormancy effect: cell cycle analysis by flow cytometry; conditions: Na alginate 2.5 mg/mL (Wako first grade, 120 mPa·s); serum-free cell culture solution; cultured 48 hours at 37° C.
Experimental: Sodium alginate (sodium alginate first grade reagent, available from FUJIFILM Wako Pure Chemical Corporation, viscosity of 1% aqueous solution is 120 mPa·s at 20° C.), DS (the same as in Experimental Example 1), or sodium heparin (the same as in Experimental Example 1) was used as an active ingredient in the cell treatment agent, and whether cell dormancy occurs or not by action of the active ingredient was examined by comparing the activities of cell division and proliferation which are the most general cell activities in the following manner.
The cell cycle was analyzed by flow cytometry according to the method described in known literature (Piotr Pozarowski and Zbigniew Darzynkiewicz, “Analysis of Cell Cycle by Flow Cytometry,” Methods in Molecular Biology, vol. 281: Checkpoint Controls and Cancer, Volume 2), and frequency of cell division and proliferation was compared between different active ingredients of the cell treatment agent. A specific method is as follows. Using a normal serum-free cell culture solution as a conditioning solution (comparison reference (a)), (b) a cell preservation solution in which sodium alginate (Na alginate) is added to the conditioning solution in a concentration of 2.5 mg/ml, (c) a cell preservation solution in which DS is added to the conditioning solution in a concentration of 0.1 mg/ml, and (d) a cell preservation solution in which heparin sodium (heparin Na) is added to the conditioning solution in a concentration of 50 units/ml, were prepared. To these cell preservation solutions, rat corneal epithelial cells were added at a cell concentration of 10^5 cells/ml and cultured for 48 hours under normal cell culture conditions (37° C., CO2 concentration of 5%, humidity of 100%). The number of cells in each culture was determined by cell cycle analysis using flow cytometry to determine the number of cells in each cell cycle, and the percentage of cells in the S phase, G2 phase, and M phase, which are considered as the periods of the cell division and proliferation process, was compared with the percentage of cells in the G0 phase and G1 phase, which are considered as other periods. The results are of N=4.

[4] = tested on: rat corneal epithelial cells; assay: Cell detaching and suspending effect (Experimental Example 4); conditions: dextran aqueous solution (MW 35000-50000), concentrations shown in Table 13; observed over time
Experimental: A culture solution in which FBS was added to a normal serum-free cell culture solution in a concentration of 10% (10% FBS cell culture solution) was prepared in a culture dish. To this, rat corneal epithelial cells were added at 10^6 cells/ml and cultured for 24 hours under normal cell culture conditions (37° C., CO2 concentration of 5%, humidity of 100%) to make the cultured cells fully adhere to the culture dish wall which is a scaffold.
The culture solution in the culture dish on which cultured cells obtained as described above had adhered was replaced with each of dextran sulfate aqueous solutions and a dextran aqueous solution, which are respectively obtained by dissolving dextran sulfate (Dextran sodium sulfate MW 36000-50000, available from FUJIFILM Wako Pure Chemical Corporation) and dextran (Dextran MW 35000-50000, available from FUJIFILM Wako Pure Chemical Corporation) in purified water and have concentrations shown in Table 13, and the resultant culture solutions were continuously cultured under normal cell culture conditions (37° C., CO2 concentration of 5%, humidity of 100%). For each adherent cell, detachment and suspension of adherent cells from the dish wall was observed over time. For determination of detachment and suspension, the culture dish was gently shaken manually to observe whether the cells were detached from the dish wall and suspended, and the case where 90% or more of the cells were detached and suspended was determined as detachment and suspension of adherent cells. The results are of N=4. In Table 13, “∘” means that the cells were detached and suspended, and “x” means that the cells were not detached and suspended.

[5] = tested on: Mouse malignant melanoma highly metastatic strain cell; assay: Cell protective effect: cell survival during preservation under refrigeration (trypan blue excretion test); conditions: inhibitor b 0.25 mg/mL; 5% glucose solution; refrigerator 4° C.
Experimental: Using a 5% glucose solution as a conditioning solution, nafamostat mesilate (Fusan for Injection, available from Nichi-Iko Corporation), which is a proteolytic enzyme inhibitor, was added to the conditioning solution in the concentrations shown in Table 8 (in Fusan for Injection (available from Nichi-Iko Corporation), use of a 5% glucose solution as a dilution solution is specified) to prepare cell preservation solutions. To each cell preservation solution, cells of mouse malignant melanoma high metastatic strain were added at a concentration of 10^6 cells/ml and left in a refrigerator set at 4° C. for 48 hours, and then the average survival rate (%) of cells was determined in the same manner as in Experimental Example of (1-4-1-1). The results are of N=4.

[6] = Na alginate 0.63 mg/mL, Ringer's solution
[7] = Na alginate 0.63 mg/mL, serum-free cell culture solution
[8] = Na alginate 2.5 mg/mL, Ringer's solution
[9] = Na alginate 2.5 mg/mL, serum-free cell culture solution
[10] = Na alginate 5 mg/mL, serum-free cell culture solution
[11] = Sodium alginate 0.5 mg/ml, Ringer's solution
[12] = Sodium alginate 2.5 mg/ml, Ringer's solution
[13] = Sodium alginate 50 mg/ml, Ringer's solution

Molecule: sodium alginate [Na alginate]
- Average survival rate at 24 hours [1, 6]: 52%
- Average survival rate at 72 hours [1, 6]: 68%
- Average survival rate at 24 hours [1, 7]: 60%
- Average survival rate at 72 hours [1, 7]: 77%
- Average survival rate at 24 hours ([1]; Na alginate 1.25 mg/mL, Ringer's solution): 51%
- Average survival rate at 24 hours [1, 8]: 53%
- Average survival rate at 72 hours [1, 8]: 72%
- Average survival rate at 24 hours [1, 9]: 70%
- Average survival rate at 72 hours [1, 9]: 80%
- Average survival rate at 72 hours ([1]; Na alginate 5 mg/mL, Ringer's solution): 64%
- Average survival rate at 24 hours [1, 10]: 74%
- Average survival rate at 72 hours [1, 10]: 70%
- Average survival rate at 24 hours ([2]; Na alginate 0.63 mg/mL): 56%
- Average survival rate at 72 hours ([2]; Na alginate 0.63 mg/mL): 73%
- Average survival rate at 24 hours ([2]; Na alginate 1.25 mg/mL): 57%
- Average survival rate at 24 hours ([2]; Na alginate 2.5 mg/mL): 60%
- Average survival rate at 72 hours ([2]; Na alginate 2.5 mg/mL): 77%
- Average survival rate at 72 hours ([2]; Na alginate 5 mg/mL): 70%
- Percentages of cells of each cell cycle: G0 phase + G1 phase [3]: 88.1%
- Percentages of cells of each cell cycle: S phase + G2 phase + M phase [3]: 10.1%

Molecule: low molecular weight heparin sodium [reference compound]
- Effect of improving cell viability (cell protective effect) ([1]; rat corneal epithelial cells, same experiment as for heparin sodium, values not given): the cell protective effect was observed
- Effect of improving cell viability (cell protective effect) ([2]; Chinese hamster fibroblasts, same preservation experiments, values not given): the cell protective effect was observed

Molecule: sodium alginate [Sodium alginate 120 mPa · s (1% aqueous solution, 20° C.)]
- Average survival rate after preservation for 24 hours ([1]; Sodium alginate 0.1 mg/ml, Ringer's solution): 62%
- Average survival rate after preservation for 7 days [1, 11]: 53%
- Average survival rate after preservation for 24 hours [1, 12]: 59%
- Average survival rate after preservation for 7 days [1, 12]: 52%

Molecule: sodium alginate [Sodium alginate 30 mPa · s (1% aqueous solution, 20° C.)]
- Average survival rate after preservation for 24 hours ([1]; Sodium alginate 0.2 mg/ml, Ringer's solution): 50%
- Average survival rate after preservation for 7 days [1, 11]: 51%
- Average survival rate after preservation for 24 hours ([1]; Sodium alginate 1 mg/ml, Ringer's solution): 54%
- Average survival rate after preservation for 7 days [1, 12]: 56%

Molecule: dextran [reference compound]
- Detachment and suspension of adherent cells after replacement [4]: not detached and suspended in any of the cases

Molecule: N=C(N)c1ccc2cc(OC(=O)c3ccc(N=C(N)N)cc3)ccc2c1 [inhibitor b, nafamostat mesilate]
- Average survival rate at 48 hours [5]: 43%

Molecule: sodium alginate [Sodium alginate 30 mPa · s (10% aqueous solution, 20° C.)]
- Average survival rate after preservation for 7 days [1, 12]: 54%
- Average survival rate after preservation for 7 days ([1]; Sodium alginate 10 mg/ml, Ringer's solution): 69%
- Average survival rate after preservation for 24 hours ([1]; Sodium alginate 20 mg/ml, Ringer's solution): 46%
- Average survival rate after preservation for 24 hours [1, 13]: 50%
- Average survival rate after preservation for 7 days [1, 13]: 72%

B1: urinastatin (protein, UniProt P02760 206-352, looked up)
Inter-alpha-trypsin inhibitor …: AVLPQEEEGSGGGQLVTEVTKKEDSCQLGYSAGPCMGMTSRYFYNGTSMACETFQYGGCMGNGNNFVTEKECLQTCRTVAACNLPIVRGPCRAFIQLWAFDAVKGKCVLFPYGGCQGNGNKFYSEKECREYCGVPGDGDEELLRFSN
modifications: Inter-alpha-trypsin inhibitor light chain
- Average survival rate at 72 hours ([1]; inhibitor a 5 units/mL, Ringer's solution): 70%
